Test results published in US3953483A, “17-Nor-6-methyl-steroids” (Takeda Chemical Industries, Ltd., priority 1973, dated 1976).
Entries after “also recorded” stand apart in the source; their conditions may differ.

Legend:
anti-androgenic activity = conditions: known compounds, background; cited from earlier work
liver = conditions: known compound, background; cited from earlier work
[1] = tested on: seminal vesicles, ventral prostate and dorsal prostates; test: anti-androgenic activity: inhibition of testosterone propionate-induced weight increase of secondary sex structures in castrated male rats, oral dosing; assay type: in vivo, rats (SD-JCL strain); conditions: for Percent inhibition: Dorsal prostate / Percent inhibition: Seminal vesicles / Percent inhibition: Ventral prostate / Weight of organs: Dorsal prostate / Weight of organs: Seminal vesicles / Weight of organs: Ventral prostate: 5 rats; for Weight of organs: Dorsal prostate / Weight of organs: Seminal vesicles / Weight of organs: Ventral prostate: average ± standard error
Procedure: The following is the assay data on the anti-androgenic activity of 6-methylandrosta-4,6-dien-3-one(the test compound), a compound obtainable by the method of this invention. Testing procedure: Male rats of the SD-JCL strain, 21 days of age (body weights 40-55 g.) are castrated and, beginning on the next day, a daily dose of the test compound is suspended in 0.5 ml. of aqueous solvent and orally administered via a gastric catheter once daily, every day excepting Sundays, for a total of 10 times (12 days). Simultaneously with the administration of the test compound, a daily dose of 0.15 mg. of testosterone propionate is dissolved in 0.2 ml. of sesame oil and subcutaneously injected into the dorsal region of the neck.
On the day following the last day of administration, the rats are exsanguinated under ether anaesthesia and the seminal vesicles, ventral prostate and dorsal prostates are weighed. The anti-androgenic potency of the test compound is determined as follows.
dosed with testosterone
- dosed with testosterone
(%) dosed with testosterone

[2] = test compound 9.6mg. × 10 oral + testosterone propionate 0.15mg. × 10 s.c.
[3] = test compound 38.4mg. × 10 oral + testosterone propionate 0.15mg. × 10 s.c.
[4] = testosterone propionate 0.15mg. × 10 s.c. alone

## C[C@]12CC[C@H]3[C@@H](CCC4=CC(=O)CC[C@@H]43)[C@@H]1C[C@H](C1CCCCC1)[C@@H]2O [16β-cyclohexyl-17β-hydroxyestr-4-en-3-one]
anti-androgenic activity
  effectiveness by oral administration: little effective by oral administration

## CC[C@H]1C[C@H]2[C@@H]3CCC4=CC(=O)CC[C@@H]4[C@H]3CC[C@]2(C)[C@H]1O [16β-ethyl-17β-hydroxyestr-4-en-3-one]
anti-androgenic activity
  effectiveness by oral administration: little effective by oral administration

## CCCCCC(=O)O[C@]1(C(C)=O)CC[C@H]2[C@@H]3CCC4=CC(=O)CC[C@@H]4[C@H]3CC[C@@]21C [17α-caproyloxy-19-norprogesterone]
liver
  side effect: causes `fatty liver` as a side effect

## CC[C@H]1C[C@H]2[C@@H]3CCC4=CC(=O)CC[C@@H]4[C@H]3CC[C@]2(C)[C@H]1OC(C)=O [17β-acetyloxy-16β-ethylestr-4-en-3-one]
anti-androgenic activity
  effectiveness by oral administration: little effective by oral administration

## CC1=C[C@H]2[C@@H]3CCC[C@@]3(C)CC[C@@H]2[C@@]2(C)CCC(=O)C=C12 [test compound, 6-methylandrosta-4,6-dien-3-one]
[1]; oral, caused by testosterone propionate
  inhibition of weight increases of secondary sex structures / anti-androgenic activity (in words): significantly inhibits the weight increases of various secondary sex structures; also recorded: the degree of inhibition (percent inhibition) being proportional to the dosage; also recorded: potent anti-androgenic activity
[1]; [2]
  Percent inhibition: Dorsal prostate: 38%
  Percent inhibition: Seminal vesicles: 53%
  Percent inhibition: Ventral prostate: 34%
  Weight of organs: Dorsal prostate: 62 ± 3 mg
  Weight of organs: Seminal vesicles: 164 ± 15 mg
  Weight of organs: Ventral prostate: 100 ± 4 mg
[1]; [3]
  Percent inhibition: Dorsal prostate: 59%
  Percent inhibition: Seminal vesicles: 77%
  Percent inhibition: Ventral prostate: 53%
  Weight of organs: Dorsal prostate: 44 ± 2 mg
  Weight of organs: Seminal vesicles: 82 ± 5 mg
  Weight of organs: Ventral prostate: 74 ± 4 mg

## CCC(=O)O[C@H]1CC[C@H]2[C@@H]3CCC4=CC(=O)CC[C@]4(C)[C@H]3CC[C@]12C [testosterone propionate, reference compound]
[1]; [4]
  Weight of organs: Dorsal prostate: 96 ± 3 mg
  Weight of organs: Seminal vesicles: 337 ± 27 mg
  Weight of organs: Ventral prostate: 147 ± 7 mg
